Test results from patent US10968203B2, “Pyrimidinyl-pyridyloxy-naphthyl compounds and methods of treating IRE1-related diseases and disorders” (Genentech, Inc., priority 2017, dated 2021).
Where a name gives a salt, the structure may show the parent alone.

Each compound was assayed on XBP1s-luc 293 LUC (assay: cellular PD assay, XBP1s-LUC reporter (Example 903)). Settings: Table 1; read-out: XBP1s-luc 293 LUC (IC50).
Assay type: cell-based
Procedure, shortened: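 Cellular IRE1α pathway activity was quantified from the luciferase signal of an XBP1-Luc reporter, where the luciferase fusion is in frame and expressed only from the spliced XBP1 transcript.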

SMILES	IC50 [nM]
Cc1ccc2c(NS(=O)(=O)CC3CCC3)cccc2c1Oc1ncccc1-c1ccnc(N[C@H]2CCCNC2)n1 [Example 127, (S)-1-Cyclobutyl-N-(6-methyl-5-((3-(2-(piperidin-3-ylamino)pyrimidin-4-yl)pyridin-2-yl)oxy)naphthalen-1-yl)methanesulfonamide]	233
CC[C@@H](C)C(=O)Nc1cccc2c(Oc3ncccc3-c3ccnc(N[C@H]4CCCNC4)n3)c(C)ccc12 [Example 204, (R)-2-methyl-N-(6-methyl-5-((3-(2-(((S)-piperidin-3-yl)amino)pyrimidin-4-yl)pyridin-2-yl)oxy)naphthalen-1-yl)butanamide]	449
CCCCNc1cccc2c(Oc3ncccc3-c3ccnc(N[C@H]4CCCNC4)n3)c(C)ccc12 [Example 197, (S)-4-(2-((5-(Butylamino)-2-methylnaphthalen-1-yl)oxy)pyridin-3-yl)-N-(piperidin-3-yl)pyrimidin-2-amine]	228
Cc1ccc2c(NC(=O)[C@H]3CCC(F)(F)C3)cccc2c1Oc1ncccc1-c1ccnc(N[C@H]2CCCNC2)n1 (single isomer, unassigned) [Example 270]	189
Cc1ccc2c(NCC[C@@H]3CC3(F)F)cccc2c1Oc1ncccc1-c1ccnc(N[C@H]2CCCNC2)n1 (single isomer, unassigned) [Example 291]	361
Cc1cc(NS(=O)(=O)C2CCCC2)c2ccccc2c1Oc1ncccc1-c1ccnc(N[C@H]2CC[C@H](N)CC2)n1 [Example 119, N-(4-((3-(2-(((trans)-4-aminocyclohexyl)amino)pyrimidin-4-yl)pyridin-2-yl)oxy)-3-methylnaphthalen-1-yl)cyclopentanesulfonamide hydrochloride]	312
Cc1ccc2c(NC(=O)[C@@H]3C[C@H]3C(F)F)cccc2c1Oc1ncccc1-c1ccnc(N[C@H]2CCCNC2)n1 [Example 293, (1R,2R)-2-(Difluoromethyl)-N-(6-methyl-5-((3-(2-(((S)-piperidin-3-yl)amino)pyrimidin-4-yl)pyridin-2-yl)oxy)naphthalen-1-yl)cyclopropane-1-carboxamide]	90.5
CCCS(=O)(=O)Nc1cccc2c(Oc3ncccc3-c3ccnc(N[C@H]4CCCNC4)n3)c(Cl)ccc12 [Example 181]	185
Cc1ccc2c(NC(=O)CC(F)(F)F)cccc2c1Oc1ncccc1-c1ccnc(N[C@H]2CCCNC2)n1 [Example 252, (S)-3,3,3-Trifluoro-N-(6-methyl-5-(3-(2-(piperidin-3-ylamino)pyrimidin-4-yl)pyridin-2-yloxy)naphthalen-1-yl)propanamide]	134
CCCCS(=O)(=O)Nc1cccc2c(Oc3ncccc3-c3ccnc(N[C@H]4CCCNC4)n3)c(C)ccc12 [Example 136, (S)—N-(6-Methyl-5-((3-(2-(piperidin-3-ylamino)pyrimidin-4-yl)pyridin-2-yl)oxy)naphthalen-1-yl) butane-1-sulfonamide]	297
Cc1ccc2c(NC(=O)[C@H]3CC34CCCC4)cccc2c1Oc1ncccc1-c1ccnc(N[C@H]2CCCNC2)n1 (single isomer, unassigned) [Example 253]	352
Cc1ccc2c(NS(=O)(=O)C(C)C)cccc2c1Oc1ncccc1-c1ccnc(N[C@H]2CCCNC2)n1 [Example 106, (S)—N-(6-Methyl-5-((3-(2-(piperidin-3-ylamino)pyrimidin-4-yl)pyridin-2-yl)oxy)naphthalen-1-yl) methylethylsulfonamide hydrochloride]	349
Cc1ccc2c(NC(=O)C3(C)CC3)cccc2c1Oc1ncccc1-c1ccnc(N[C@@H]2CNC[C@H](C)C2)n1 [Example 368, 1-Methyl-N-(6-methyl-5-((3-(2-(((3S,5R)-5-methylpiperidin-3-yl)amino)pyrimidin-4-yl)pyridin-2-yl)oxy)naphthalen-1-yl)cyclopropanecarboxamide]	214
Cc1ccc2c(NC(=O)CC3CCCCC3)cccc2c1Oc1ncccc1-c1ccnc(N[C@H]2CCCNC2)n1 [Example 130, (S)-2-Cyclohexyl-N-(6-methyl-5-((3-(2-(piperidin-3-ylamino)pyrimidin-4-yl)pyridin-2-yl)oxy)naphthalen-1-yl)acetamide]	228
Cc1ccc2c(NS(=O)(=O)CC3CCCO3)cccc2c1Oc1ncccc1-c1ccnc(N[C@H]2CCCNC2)n1 (stereo partly drawn) [Example 141, N-(6-Methyl-5-((3-(2-((S)-piperidin-3-ylamino)pyrimidin-4-yl)pyridin-2-yl)oxy)naphthalen-1-yl)-1-(tetrahydrofuran-2-yl)methanesulfonamide]	457
Cc1ccc2c(NCCC3CC3)cccc2c1Oc1ncccc1-c1ccnc(N[C@H]2CCCNC2)n1 [Example 224, (S)-4-(2-((5-((2-Cyclopropylethyl)amino)-2-methylnaphthalen-1-yl)oxy)pyridin-3-yl)-N-(piperidin-3-yl)pyrimidin-2-amine]	177
Cc1ccc2c(NS(=O)(=O)CCC(F)(F)F)c(F)ccc2c1Oc1ncccc1-c1ccnc(N[C@@H]2CNC[C@H](C)C2)n1 [Example 311, 3,3,3-Trifluoro-N-(2-fluoro-6-methyl-5-((3-(2-(((3S,5R)-5-methylpiperidin-3-yl)amino)pyrimidin-4-yl)pyridin-2-yl)oxy)naphthalen-1-yl)propane-1-sulfonamide]	6.16
Cc1ccc2c(NC(=O)CC3CC4CCC3C4)cccc2c1Oc1ncccc1-c1ccnc(N[C@H]2CCCNC2)n1 (stereo partly drawn) [Example 286, 2-(Bicyclo[2.2.1]heptan-2-yl)-N-(6-methyl-5-((3-(2-((S)-piperidin-3-ylamino)pyrimidin-4-yl)pyridin-2-yl)oxy)naphthalen-1-yl)acetamide]	174
Cc1ccc2c(NS(=O)(=O)Cc3ccccc3)cccc2c1Oc1ncccc1-c1ccnc(N[C@@H]2CNC[C@H](F)C2)n1 [Example 148, N-(5-((3-(2-(((3S,5R)-5-Fluoropiperidin-3-yl)amino)pyrimidin-4-yl)pyridin-2-yl)oxy)-6-methylnaphthalen-1-yl)-1-phenylmethanesulfonamide]	211
Cc1ccc2c(NC[C@H]3CCOC3)cccc2c1Oc1ncccc1-c1ccnc(N[C@H]2CCCNC2)n1 (single isomer, unassigned) [Example 352]	499
CC[C@H]1CCN(c2cccc3c(Oc4ncccc4-c4ccnc(N[C@@H]5CNC[C@H](C)C5)n4)c(C)ccc23)C1=O (single isomer, unassigned) [Example 332]	194

Same assay, conditions: Table 2; read-out: XBP1s-luc 293 LUC (IC50)

SMILES	IC50 [nM]
COCCS(=O)(=O)Nc1c(F)ccc2c(Oc3ncccc3-c3ccnc(N[C@@H]4CNC[C@H](C)C4)n3)c(C)ccc12 [Example 431, N-[2-Fluoro-6-methyl-5-[[3-[2-[[(3S,5R)-5-methyl-3-piperidyl]amino]pyrimidin-4-yl]-2-pyridyl]oxy]-1-naphthyl]-2-methoxy-ethanesulfonamide hydrochloride]	34
Cc1ccc2c(NS(=O)(=O)N(C)CCC(F)(F)F)c(F)ccc2c1Oc1ncccc1-c1ccnc(N[C@H]2CCCNC2)n1 [Example 441, 4-[2-[[6-Fluoro-2-methyl-5-[[methyl(3,3,3-trifluoropropyl)sulfamoyl]amino]-1-naphthyl]oxy]-3-pyridyl]-2-[[(3S)-3-piperidyl]amino]pyrimidine hydrochloride]	48
Cc1ccc2c(NCC(C#N)C(C)C)cccc2c1Oc1ncccc1-c1ccnc(N[C@H]2CCCNC2)n1 (single isomer, unassigned) [Example 422]	83
Cc1ccc2c(NC[C@@H](C)C#N)cccc2c1Oc1ncccc1-c1ccnc(N[C@H]2CCCNC2)n1 (single isomer, unassigned) [Example 414, hydrochloride]	59
Cc1ccc2c(NS(=O)(=O)Cc3nn(C)cc3Cl)c(F)ccc2c1Oc1ncccc1-c1ccnc(N[C@H]2CCCNC2)n1 [Example 448, 1-(4-Chloro-1-methyl-pyrazol-3-yl)-N-[2-fluoro-6-methyl-5-[[3-[2-[[(3S)-3-piperidyl]amino]pyrimidin-4-yl]-2-pyridyl]oxy]-1-naphthyl]methanesulfonamide hydrochloride]	19
Cc1ccc2c(NS(=O)(=O)Cc3ccc(C#N)cc3)c(F)ccc2c1Oc1ncccc1-c1ccnc(N[C@H]2CCCNC2)n1 [Example 426, (S)-1-(4-Cyanophenyl)-N-(2-fluoro-6-methyl-5-((3-(2-(piperidin-3-ylamino)pyrimidin-4-yl)pyridin-2-yl)oxy)naphthalen-1-yl)methanesulfonamide hydrochloride]	5
Cc1ccc2c(NS(=O)(=O)CC3CC3(F)F)c(F)ccc2c1Oc1ncccc1-c1ccnc(N[C@H]2CCCNC2)n1 (mixture of isomers) [Example 467, 1-(2,2-Difluorocyclopropyl)-N-(2-fluoro-6-methyl-5-((3-(2-((S)-piperidin-3-ylamino)pyrimidin-4-yl)pyridin-2-yl)oxy)naphthalen-1-yl)methanesulfonamide hydrochloride]	42
Cc1ccc2c(NS(=O)(=O)C[C@H]3CCCO3)c(F)ccc2c1Oc1ncccc1-c1ccnc(N[C@H]2CCCNC2)n1 (single isomer, unassigned) [Example 417, hydrochloride]	74
Cc1ccc2c(N[C@@H]3CCCC[C@H]3O)cccc2c1Oc1ncccc1-c1ccnc(N[C@H]2CCCNC2)n1 (single isomer, unassigned) [Example 446, hydrochloride]	67
CCN(C)S(=O)(=O)Nc1c(F)ccc2c(Oc3ncccc3-c3ccnc(N[C@H]4CCCNC4)n3)c(C)ccc12 [Example 421, 4-[2-[[5-[[Ethyl(methyl)sulfamoyl]amino]-6-fluoro-2-methyl-1-naphthyl]oxy]-3-pyridyl]-2-[[(3S)-3-piperidyl]amino]pyrimidine hydrochloride]	44
O=S(=O)(Cc1ccccc1)Nc1cccc2c(Oc3ncccc3-c3ccnc(N[C@H]4CCCNC4)n3)cccc12 [Example 452, (S)-1-Phenyl-N-(5-((3-(2-(piperidin-3-ylamino)pyrimidin-4-yl)pyridin-2-yl)oxy)naphthalen-1-yl)methanesulfonamide]	19
